From patent publication US6897198B2, “Method of treatment with combinations of statin and aryl-substituted propanolamine derivatives” (Aventis Pharma Deutschland GmbH, priority 1998, dated 2005)

Key:
[1] = target: T1, Na+-dependent bile acid transport system (Oryctolagus cuniculus, UniProt Q28727); assay: Inhibition of Na+-dependent [3H]-taurocholate uptake in rabbit ileum cuticular layer membrane vesicles; assay type: biochemical; conditions: Table 1, 50 μM taurocholate, incubation normally 1 minute
T1 construct: Cuticular layer membrane vesicles were prepared from ileum cells by the so-called Mg^2+ precipitation method; from tissue; host or cells: terminal ileum of male New Zealand rabbits (brush-border / cuticular layer membrane vesicles)
T1 sequence (Q28727 1-347): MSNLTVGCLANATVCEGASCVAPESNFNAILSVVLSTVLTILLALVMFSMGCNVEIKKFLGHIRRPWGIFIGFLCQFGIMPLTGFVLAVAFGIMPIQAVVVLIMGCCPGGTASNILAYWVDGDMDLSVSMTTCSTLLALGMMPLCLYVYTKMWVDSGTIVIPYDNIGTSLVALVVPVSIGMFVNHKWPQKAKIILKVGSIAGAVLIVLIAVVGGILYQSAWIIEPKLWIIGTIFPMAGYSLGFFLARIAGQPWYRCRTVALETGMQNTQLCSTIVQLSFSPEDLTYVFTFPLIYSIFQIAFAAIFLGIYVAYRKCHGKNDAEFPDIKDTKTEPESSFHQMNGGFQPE
Method: The compounds according to the invention were tested in a biotest by determining the inhibition of [^3H]-taurocholate uptake in rabbit ileum cuticular layer membrane vesicles. The inhibitory test was carried out as follows:
1. Preparation of Rabbit Ileum Cuticular Layer Membrane Vesicles
Cuticular layer membrane vesicles were prepared from ileum cells by the so-called Mg^2+ precipitation method. Male New Zealand rabbits (body weight 2 to 2.5 kg) were sacrificed by intravenous injection of 0.5 ml T61®, an aqueous solution of 2.5 mg of tetracaine —HCl, 100 mg of embutramide and 25 mg of mebezonium iodide. The ileum was removed and washed with ice-cold physiological saline. The terminal 7/10th of the ileum (measured in the oral-rectal direction, i.e., the terminal ileum, which contains the active Na^+-dependent bile acid transport system) were used for preparing the cuticular layer membrane vesicles. The intestines were frozen in polymer bags at −80° C. under nitrogen. To prepare the membrane vesicles, the frozen intestines were defrosted in a water bath at 30° C. The mucosa was scraped off and suspended in 60 ml of ice-cold 12 mM TRIS/HCl buffer (pH 7.1)/300 mM mannitol, 5 mM EGTA/10 mg/l phenylmethylsulfonyl fluoride/1 mg/l soybean trypsin inhibitor (32 (U/mg)/0.5 mg/l bovine lung trypsin inhibitor (193 U/mg)/5 mg/l bacitracin. After the mixture had been diluted to 300 ml with ice-cold distilled water, it was homogenized in an Ultraturrax (rod 18, IKA Werk Staufen, Germany) for 3 minutes at 75% of maximum speed, with ice-cooling. After 3 ml of 1 M MgCl2 solution had been added (final concentration 10 mM), the mixture was left to stand at 0° C. for exactly 1 minute. The addition of Mg^2+ causes the cell membranes to aggregate and precipitate with the exception of the cuticular layer membranes. After centrifugation for 15 minutes at 3000×g (5000 rpm, SS-34 rotor), the precipitate was discarded, and the supernatant, which contains the cuticular layer membranes, was centrifuged for 30 minutes at 48,000×g (20,000 rpm, SS-34 rotor). The supernatant was discarded, and the precipitate was rehomogenized in 60 ml of 12 mM TRIS/HCl buffer (pH 7.1)/60 mM mannitol, 5 mM EGTA using a Potter Elvejhem homogenizer (Braun, Melsungen, 900 rpm, 10 strokes). After addition of 0.1 ml of 1 M MgCl2 solution and incubation for 15 minutes at 0° C., the mixture was again centrifuged for 15 minutes at 3000×g. The supernatant was subsequently centrifuged for a further 30 minutes at 48,000×g (20,000 rpm, SS-34 rotor). […]
The uptake of substrates into the above-described cuticular layer membrane vesicles was determined by means of the so-called membrane filtration technique. […]

gallstone-sensitive mice = assay: Test for gallstone formation (cholesterol gallstone formation, lithogenic diet); assay type: in vivo; conditions: male C57L mice, 100 mg/kg/d (0.1% in the feed), 13 weeks, lithogenic diet alone 5/15
Method: Test for Gallstone Formation • 1. Test Substance, Dose and Application • Example 9 of Table 1 (=A1) 100 mg/kg/d 0.1% in the feed • 2. Aim
In this test, the cholesterol gallstone formation in gallstone-sensitive mice was investigated. • 3. Materials and Methods • 3.1 Animals and Housing
The experimental animals used are male C57L mice (Jackson Laboratories) with an average body weight of 25-30 g at the beginning of the adaptation.
The animals were randomly divided into 4 groups (n=10, groups 2 and 3 n=15). Starting at the beginning of the treatment, the mice were either fed a standard rodent feed by Altromin (group 1), or a lithogenic diet by Altromin (groups 2-4); this diet was composed as follows: 15% butter, 1% cholesterol, 50% sugar, 20% casein, 0.5% cholic acid, 5% mineral mix, 2.5% vitamin mix, 2% corn oil, corn starch to 100%. The animals were weighed weekly, and the food consumption was determined by continuous weighings before and after, whereby the dose was calculated. • 3.2. Final Examination
After 11 and 13 weeks, respectively, the animals of each group were sacrificed and the gallbladders subsequently prepared. Gallstones in the gallbladder were then recorded. The gallbladder was dissected, the weight was determined, and the composition of the bile and the gallstones was analyzed.

Compound | Bio. Test (quotient of the IC50Na values of the reference substance taurochenodesoxycholate (TCDC) and the test substance) [1] | Frequency of gallstones (n/n) (gallstone-sensitive mice)
O=C(CCC(=O)Nc1ccccc1[C@@H](Nc1ccccn1)[C@H](c1ccccn1)[C@H](O)c1ccccc1)NC[C@H](O)[C@@H](O)[C@H](O)[C@H](O)CO [Example 15] | 0.19 | –
O=C(NCCCNc1ccccc1[C@@H](Nc1ccccn1)[C@H](c1ccccn1)[C@H](O)c1ccccc1)[C@H](O)[C@@H](O)[C@H](O)[C@H](O)CO [Example 2] | 0.24 | –
O=C(CCCCCCCCCCNC(=O)[C@H](O)[C@@H](O)[C@H](O)[C@H](O)CO)Nc1ccccc1[C@@H](Nc1ccccn1)[C@H](c1ccccn1)[C@H](O)c1ccccc1 [Example 9] | 1.78 | 0/10
CC(=O)OC[C@@H](OC(C)=O)[C@@H](OC(C)=O)[C@H](OC(C)=O)[C@@H](OC(C)=O)C(=O)NCCCCCCCCCCC(=O)Nc1ccccc1[C@@H](Nc1ccccn1)[C@H](c1ccccn1)[C@H](O)c1ccccc1 [Example 8] | 0.83 | –
